Values of other authors, collected in patent US12336975B2, “Composition and methods for treatment or prophylaxis of coronavirus and cancers” ([…], priority 2020, dated 2025).

Tested on: COVID-19
Settings: preventive and treatment approach for COVID-19

## CCN(CCO)CCCC(C)Nc1ccnc2cc(Cl)ccc12 (centres unmarked) [hydroxychloroquine]
  efficacy against COVID-19: no effective results
  reported side effect rate: 40.1%
